Among the data in patent US20250388593A1 (MITSUBISHI TANABE PHARMA CORPORATION, priority 2023, published 2025) are Kd values, retold here.

Bounds are passed on as bounds.

In this test the target is CRBN truncate (318-426) (Homo sapiens (Human), UniProt Q96SW2). Nature of the test: Measurement of molecular interactions using surface plasmon resonance (SPR), Biacore T200. The test is classed as binding. The note with it: 25° C., immobilized CRBN truncate, upper limit of measurement 200 μM. The method in brief: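 Compound injections used 60 s association and 120 s dissociation in HEPES pH 7.5 buffer (150 mM NaCl, 1 mM TCEP, 0.005% Tween 20, 2% DMSO). The ligand was CRBN truncate 318-426 bearing a C-terminal Avi-tag, immobilised via streptavidin on an SA sensor chip.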
Sequence of CRBN truncate (318-426) (Q96SW2 318-426): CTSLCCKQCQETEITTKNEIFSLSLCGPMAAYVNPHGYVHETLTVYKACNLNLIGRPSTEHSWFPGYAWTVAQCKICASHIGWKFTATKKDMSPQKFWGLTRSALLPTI
(SPR reads the build-up and loss of mass on a sensor chip optically.)
As usually defined, the Kd is the equilibrium constant for the complex coming apart. Higher therefore signals lower affinity. As to `CC(C)(C)OC(=O)c1cnc(N2CCC3(CCCC(=O)NC3=O)C2)nc1` (centres unmarked) [Example 32, tert-Butyl 2-(6,8-dioxo-2,7-diazaspiro [4.6]undecan-2-yl) pyrimidine-5-carboxylate], the Kd was at least 100 µM.
As for `O=C1CCCC2(CCN(c3ccc([N+](=O)[O-])cc3)C(=O)C2)C(=O)N1` (centres unmarked) [Example 225, 3-(4-Nitrophenyl)-3,8-diazaspiro [5.6]dodecane-4,7,9-trione], the figure is at least 100 µM; as for `CC(C)(C)OC(=O)NCCCCCCc1ccccc1C(=O)N1CCC2(CCCC(=O)NC2=O)C1` (centres unmarked) [Example 159, tert-ButylN-[6-[2-(6,8-dioxo-2,7-diazaspiro[4.6]undecane-2-carbonyl)phenyl]hexyl]carbamate], at least 100 µM.
As for `CC(C)(C)OC(=O)c1ccc(CN2CCC3(CCCC(=O)NC3=O)CC2=O)cc1` (centres unmarked) [Example 111, tert-Butyl 4-[(4,7,9-trioxo-3,8-diazaspiro [5.6]dodecan-3-yl)methyl]benzoate], the figure is 50 to 100 µM; as for `CC(C)(C)OC(=O)NCCCNc1nccc(N2CCC3(CCCC(=O)NC3=O)C2)n1` (centres unmarked) [Example 185], at least 100 µM; as for `Cn1c(=O)n(C2CCCC(=O)NC2=O)c2ccc(Br)cc21` (centres unmarked) [Example 139, 3-(5-Bromo-3-methyl-2-oxobenzimidazol-1-yl) azepane-2,7-dione], 50 to 100 µM.
Compound `CCOC(=O)c1cc(N2CCC3(CCCC(=O)NC3=O)C2)ncc1C(F)(F)F` (centres unmarked) [Example 40, Ethyl 2-(6,8-dioxo-2,7-diazaspiro[4.6]undecan-2-yl)-5-(trifluoromethyl)pyridine-4-carboxylate] came in with a Kd of at least 100 µM.
`Cc1sc2c(c1C)C(c1ccc(Cl)cc1)=N[C@@H](CC(=O)NCCCCCCCCNC(=O)c1ccc(OC3CCCC(=O)NC3=O)nc1)c1nnc(C)n1-2` (stereo partly drawn) [Example 338, N-[8-[[2-[(9S)-7-(4-chlorophenyl)-4,5,13-trimethyl-3-thia-1,8,11,12-tetraazatricyclo[8.3.0.02,6]trideca-2(6),4,7,10,12-pentaen-9-yl]acetyl]amino]octyl]-6-(2,7-dioxoazepan-3-yl)oxypyridine-3-carboxamide] yielded a Kd of under 50 µM.
“2-(3-Methyl-5-nitro-2-pyridyl)-2,7-diazaspiro[4.6]undecane-6,8-dione [Example 78]”: the dissociation constant (Kd) was at least 100 µM.
The value for `Cc1sc2c(c1C)C(c1ccc(Cl)cc1)=N[C@@H](CC(=O)NCCCCCCCCNC(=O)CN1C(=O)[C@@](C)(N3CCCC(=O)NC3=O)c3ccccc31)c1nnc(C)n1-2` [Example 352, 2-[(9S)-7-(4-Chlorophenyl)-4,5,13-trimethyl-3-thia-1,8,11,12-tetraazatricyclo[8.3.0.02,6]trideca-2(6),4,7,10,12-pentaen-9-yl]-N-[8-[[2-[3-(2,4-dioxo-1,3-diazepan-1-yl)-3-methyl-2-oxoindol-1-yl]acetyl]amino]octyl]acetamide] was under 50 µM; that for `Cc1sc2c(c1C)C(c1ccc(Cl)cc1)=N[C@@H](CC(=O)NCCCCCCCCNC(=O)CCc1nn(C3CCCC(=O)NC3=O)c3ccccc13)c1nnc(C)n1-2` (stereo partly drawn) [Example 334, N-[8-[[2-[(9S)-7-(4-chlorophenyl)-4,5,13-trimethyl-3-thia-1,8,11,12-tetraazatricyclo[8.3.0.02,6]trideca-2(6),4,7,10,12-pentaen-9-yl]acetyl]amino]octyl]-3-[1-(2,7-dioxoazepan-3-yl)indazol-3-yl]propanamide] was under 50 µM; that for `C[C@@H]1Cc2c([nH]c3ccccc23)[C@@H](c2cnc(N3CCC(CN(C)CCCCCCCc4ccc(C(=O)N5CCC6(CCCC(=O)NC6=O)C5)cc4)CC3)nc2)N1CC(C)(C)F` (stereo partly drawn) [Example 361-2, 2-[4-[7-[[1-[5-[(1R,3R)-2-(2-fluoro-2-methyl-propyl)-3-methyl-1,3,4,9-tetrahydropyrido[3,4-b]indol-1-yl]pyrimidin-2-yl]-4-piperidyl]methyl-methyl-amino]heptyl]benzoyl]-2,7-diazaspiro[4.6]undecane-6,8-dione] was under 50 µM.
As for `CC(C)(C)OC(=O)Cn1c(=O)c(=O)n(C2CCCC(=O)NC2=O)c2ccccc21` (centres unmarked) [Example 275, tert-Butyl 2-[4-(2,7-dioxoazepan-3-yl)-2,3-dioxoquinoxalin-1-yl]acetate], the figure is at least 100 µM; as for `Cn1c(=O)n(C2CCCC(=O)NC2=O)c2cccc(-c3ccncc3)c21` (centres unmarked) [Example 221, 3-[3-Methyl-2-oxo-4-(4-pyridyl)benzimidazol-1-yl]azepane-2,7-dione], 50 to 100 µM; as for `CC(C)(C)OC(=O)NCCCCCCCCn1ccc2c(N3CCC4(CCCC(=O)NC4=O)C3)ncnc21` (centres unmarked) [Example 186, tert-Butyl N-[8-[4-(6,8-dioxo-2,7-diazaspiro[4.6]undecan-2-yl)pyrrolo[2,3-d]pyrimidin-7-yl]octyl]carbamate], 50 to 100 µM.
`O=C1CCCC(C(=O)Nc2ccc(F)cc2)C(=O)N1` (centres unmarked) [Example 28, N-(4-Fluorophenyl)-2,7-dioxoazepane-3-carboxamide] registered a Kd of at least 100 µM.
The value for `COc1ccc2sc(N3CCC4(CCCC(=O)NC4=O)C3)nc2c1` (centres unmarked) [Example 188, 2-(5-Methoxy-1,3-benzothiazol-2-yl)-2,7-diazaspiro[4.6]undecane-6,8-dione] was at least 100 µM.
The value for `Cc1sc2c(c1C)C(c1ccc(Cl)cc1)=N[C@@H](CC(=O)NCCCCCCCCNC(=O)COc1ccccc1-c1cn(C3CCCC(=O)NC3=O)nn1)c1nnc(C)n1-2` (stereo partly drawn) [Example 340, 2-[(9S)-7-(4-chlorophenyl)-4,5,13-trimethyl-3-thia-1,8,11,12-tetraazatricyclo[8.3.0.02,6]trideca-2(6),4,7,10,12-pentaen-9-yl]-N-[8-[[2-[2-[1-(2,7-dioxoazepan-3-yl)triazol-4-yl]phenoxy]acetyl]amino]octyl]acetamide] was under 50 µM; that for `Cc1sc2c(c1C)C(c1ccc(Cl)cc1)=N[C@@H](CC(=O)NCCCCCCCCN1CC3(CC(=O)N(C4CCC(=O)NC4=O)C3=O)C1)c1nnc(C)n1-2` (stereo partly drawn) [Example 309, 2-[(9S)-7-(4-chlorophenyl)-4,5,13-trimethyl-3-thia-1,8,11,12-tetraazatricyclo[8.3.0.02,6]trideca-2(6),4,7,10,12-pentaen-9-yl]-N-[8-[6-(2,6-dioxopiperidin-3-yl)-5,7-dioxo-2,6-diazaspiro[3.4]octan-2-yl]octyl]acetamide] was at least 100 µM; that for `O=C1CCC(N2C(=O)CC3(CN(C4CCN(CC(=O)OCc5ccccc5)CC4)C3)C2=O)C(=O)N1` (centres unmarked) [Example 277, Benzyl 2-[4-[6-(2,6-dioxopiperidin-3-yl)-5,7-dioxo-2,6-diazaspiro [3.4]octan-2-yl]piperidin-1-yl]acetate] was under 50 µM.
As for `O=C1CCCC(CNC(=O)c2ccccc2)C(=O)N1` (centres unmarked) [Example 57, N-[(2,7-Dioxoazepan-3-yl)methyl]benzamide], the figure is at least 100 µM; as for `Cc1sc2c(c1C)C(c1ccc(Cl)cc1)=N[C@@H](CC(=O)NCCCCCCCCNC(=O)c1ccc(N3CCC4(CCCC(=O)NC4=O)CC3=O)nc1)c1nnc(C)n1-2` (stereo partly drawn) [Example 335, N-[8-[[2-[(9S)-7-(4-chlorophenyl)-4,5,13-trimethyl-3-thia-1,8,11,12-tetraazatricyclo[8.3.0.02,6]trideca-2(6),4,7,10,12-pentaen-9-yl]acetyl]amino]octyl]-6-(4,7,9-trioxo-3,8-diazaspiro[5.6]dodecan-3-yl)pyridine-3-carboxamide], at least 100 µM.
In turn, `O=C1CCCC(n2nnc3ccccc32)C(=O)N1` (centres unmarked) [Example 250, 3-(Benzotriazol-1-yl)azepine 2,7-dione] returned a Kd of at least 100 µM.
